Experimental data reported in patent US20260258402A1, “DEVICE FOR DETERMINING MOLECULAR INTERACTIONS” (Depixus SAS, priority 2023, published 2026).

B1: APFL: APFL protein that bridges Ku70/80 complexes in the NHEJ complex (protein, UniProt Q8IW19 1-511, looked up)
Aprataxin and PNK-like factor: MSGGFELQPRDGGPRVALAPGETVIGRGPLLGITDKRVSRRHAILEVAGGQLRIKPIHTNPCFYQSSEKSQLLPLKPNLWCYLNPGDSFSLLVDKYIFRILSIPSEVEMQCTLRNSQVLDEDNILNETPKSPVINLPHETTGASQLEGSTEIAKTQMTPTNSVSFLGENRDCNKQQPILAERKRILPTWMLAEHLSDQNLSVPAISGGNVIQGSGKEEICKDKSQLNTTQQGRRQLISSGSSENTSAEQDTGEECKNTDQEESTISSKEMPQSFSAITLSNTEMNNIKTNAQRNKLPIEELGKVSKHKIATKRTPHKEDEAMSCSENCSSAQGDSLQDESQGSHSESSSNPSNPETLHAKATDSVLQGSEGNKVKRTSCMYGANCYRKNPVHFQHFSHPGDSDYGGVQIVGQDETDDRPECPYGPSCYRKNPQHKIEYRHNTLPVRNVLDEDNDNVGQPNEYDLNDSFLDDEEEDYEPTDEDSDWEPGKEDEEKEDVEELLKEAKRFMKRK

Tests used:
[1] = biological target: E3 ligase CEREBLON (in complex with its binding partner DDB1), the neo-target GSPT1 (Homo sapiens, UniProt P15170+Q96SW2); test: Tertiary complex formation between CRBN/DDB1 and GSPT1 with a molecular glue, on the nucleic acid scaffold (force cycles); details: for formation / stabilization of the tertiary complex CEREBLON-DDB1 / GSPT1 in the presence of the molecular glue: FIG. 27 and 28, force reduced to 0.01 pN to allow interaction
Description: (§3) Briefly, a reference elongation length of a nucleic acid scaffold present in a flow cell was determined at a constant force. Next, a single stranded polynucleotide containing the complementary sequence of the first molecule binding sequence as well as an amine group at the 5′ end (SEQ ID NO: 23) was coupled to candidate protein (CRBN and its binding partner DDB1 that form the E3 ligase complex) by a covalent conjugation (esterification via EDC). In parallel, a second single stranded polynucleotide containing the complementary sequence of the second molecule binding sequence as well as an amine group at the 3′ end (SEQ ID NO: 34) was coupled to candidate protein (GSTP1 neo-substrat of CRBN) by a covalent conjugation (esterification via EDC). A first candidate molecule conjugated to a first polynucleotide and a second candidate molecule covalently conjugated to a second polynucleotide are sequentially injected into the flow cell to anchor them on to the nucleic acid scaffold and form a screening nucleic acid scaffold (FIGS. 27 and 28). Then, a force of 2 pN was applied to determine the maximal elongation length. The force was then reduced to 0.01 pN to allow the two proteins to interact. If the two candidate molecules have binding interaction between them, upon increasing the force back to 2 pN, the elongation observed would be less than the full extension of the screening nucleic acid scaffold. If the two candidate molecules have no binding interaction between them or weaker binding interaction between them than the applied force, the nucleic acid scaffold would fully stretch. The two proteins are not believed to have a native interaction. […] Various concentration of compound can be performed to measure the Kon and Koff of interaction in presence of the compound.

[2] = biological target: E3 ligase CEREBLON (in complex with its binding partner DDB1), the neo-substrate IKAROS1 (Homo sapiens, UniProt Q13422+Q96SW2)
Description: as §3

[3] = system: double stranded blunt end substrates; test: NHEJ complex formation on two double stranded blunt end substrates on the scaffold (force cycles); type: binding; details: for role in the complex formed on the blunt end adapters: FIG. 25B, Ku70/80 and APFL injected together, 2 pN
Description: The system described in Example 1 and Example 2 was used for determining binding kinetics between two substrates and proteins that form a Non-Homologous End Joining (NHEJ) complex. The NHEJ complex recognizes double stranded blunt ends and repair these lesions in the cell. Accordingly, two substrates, each comprising a single stranded carrier polynucleotide and a candidate molecule comprising a double stranded blunt end were prepared, wherein the single stranded carrier polynucleotide was complementary to a molecule binding sequence of a nucleic acid scaffold. The double stranded blunt end was prepared by annealing twice two oligos together (SEQ ID NOS: 14 and 15, as well as SEQ ID NOS: 17 and 18 at 10 μM each in PBS).
(§1) Because each of the proposed sequences contained the glue sequence for first and second molecule binding sequence respectively, the substrates could be directed to a specific location on the nucleic acid scaffold. Accordingly, the two substrates for the NHEJ complex were anchored to two molecule binding sequences of the nucleic acid scaffold to form a screening nucleic acid scaffold. The excess substrates were washed away. A reference elongation length of a screening nucleic acid scaffold was determined by applying 2 pN force in the absence of the substrates.
(§2) Next, two candidate proteins, KU70/80 complex as well as the APFL protein together into PBS 1X, were injected within the flow cell. The flow was stop and force cycles experiments were initiated. Blockage traces were recorded at 0.1 pN and 2 pN. At 0.1 pN force, the screening nucleic acid scaffold was unstructured, which allowed the two blunt ends to be brought in close proximity. […] Because the method was a non-destructive process, the force cycles were repeated multiple times to further probe the interaction.
The system described in Example 1 and Example 2 was used for determining binding kinetics between two substrates and proteins that form a Non-Homologous End Joining (NHEJ) complex. The NHEJ complex recognizes double stranded blunt ends and repairs these lesions in the cell. Accordingly, two substrates, each comprising a single stranded carrier polynucleotide and a candidate molecule comprising a double stranded blunt end were prepared, wherein the single stranded carrier polynucleotide was complementary to a molecule binding sequence of a nucleic acid scaffold. The two double stranded blunt end adapters were prepared by annealing in two separate tubes two oligos together (SEQ ID NOS: 14 and 15, as well as SEQ ID NOS: 17 and 18 at 10 μM each in a buffer containing: 50 mM NaCl, 10 mM Tris-HCl, 10 mM MgCl2, 1 mM DTT at pH 7.9 @ 25° C.).
as §1, with “Because” for “Because each of”, “system was based on” for “sequences contained”, “protein complex recognizing blunt ends DNA,” for “glue sequence for first and second molecule binding sequence respectively,”, “applying force cycles at three step forces: 0.01,” for “applying”, “2 and 20” for “2”
as §2, with “a buffer containing: 20 mM Hepes-KOH PH7.8, 100 mM KCL, 5 mM MgCl2, 1 mM DTT, 0.5 mg/mL BSA, and they” for “PBS 1X,”, “Force cycles” for “Blockage traces”, “were the force varies between three plateau: 0.01 pN, 2” for “at 0.1”, “20 pN (FIG. 25A).” for “2 pN.”, “0.01” for “0.1”

[4] = Example 3, both proteins injected together in PBS 1X, force cycles 0.1 pN and 2 pN
[5] = Example 12, both proteins injected together, force cycles 0.01, 2 and 20 pN

E3 ligase CEREBLON (in complex with its binding partner DDB1), the neo-substrate IKAROS1, sequence (Q13422 whole entry): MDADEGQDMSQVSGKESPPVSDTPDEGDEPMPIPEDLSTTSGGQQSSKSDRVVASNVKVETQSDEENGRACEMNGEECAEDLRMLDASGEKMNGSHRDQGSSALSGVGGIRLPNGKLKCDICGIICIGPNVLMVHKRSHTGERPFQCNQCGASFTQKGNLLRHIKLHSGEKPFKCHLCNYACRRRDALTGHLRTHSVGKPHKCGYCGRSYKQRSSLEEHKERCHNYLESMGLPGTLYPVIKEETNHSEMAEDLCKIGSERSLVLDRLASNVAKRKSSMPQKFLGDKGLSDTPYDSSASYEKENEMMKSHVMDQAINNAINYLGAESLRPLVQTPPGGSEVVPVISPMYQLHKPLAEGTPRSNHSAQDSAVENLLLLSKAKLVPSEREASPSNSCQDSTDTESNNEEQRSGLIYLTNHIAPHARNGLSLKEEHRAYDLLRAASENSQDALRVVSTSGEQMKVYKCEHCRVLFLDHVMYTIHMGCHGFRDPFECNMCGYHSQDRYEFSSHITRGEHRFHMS
E3 ligase CEREBLON (in complex with its binding partner DDB1), the neo-substrate IKAROS1, sequence (Q16531 whole entry, further chain): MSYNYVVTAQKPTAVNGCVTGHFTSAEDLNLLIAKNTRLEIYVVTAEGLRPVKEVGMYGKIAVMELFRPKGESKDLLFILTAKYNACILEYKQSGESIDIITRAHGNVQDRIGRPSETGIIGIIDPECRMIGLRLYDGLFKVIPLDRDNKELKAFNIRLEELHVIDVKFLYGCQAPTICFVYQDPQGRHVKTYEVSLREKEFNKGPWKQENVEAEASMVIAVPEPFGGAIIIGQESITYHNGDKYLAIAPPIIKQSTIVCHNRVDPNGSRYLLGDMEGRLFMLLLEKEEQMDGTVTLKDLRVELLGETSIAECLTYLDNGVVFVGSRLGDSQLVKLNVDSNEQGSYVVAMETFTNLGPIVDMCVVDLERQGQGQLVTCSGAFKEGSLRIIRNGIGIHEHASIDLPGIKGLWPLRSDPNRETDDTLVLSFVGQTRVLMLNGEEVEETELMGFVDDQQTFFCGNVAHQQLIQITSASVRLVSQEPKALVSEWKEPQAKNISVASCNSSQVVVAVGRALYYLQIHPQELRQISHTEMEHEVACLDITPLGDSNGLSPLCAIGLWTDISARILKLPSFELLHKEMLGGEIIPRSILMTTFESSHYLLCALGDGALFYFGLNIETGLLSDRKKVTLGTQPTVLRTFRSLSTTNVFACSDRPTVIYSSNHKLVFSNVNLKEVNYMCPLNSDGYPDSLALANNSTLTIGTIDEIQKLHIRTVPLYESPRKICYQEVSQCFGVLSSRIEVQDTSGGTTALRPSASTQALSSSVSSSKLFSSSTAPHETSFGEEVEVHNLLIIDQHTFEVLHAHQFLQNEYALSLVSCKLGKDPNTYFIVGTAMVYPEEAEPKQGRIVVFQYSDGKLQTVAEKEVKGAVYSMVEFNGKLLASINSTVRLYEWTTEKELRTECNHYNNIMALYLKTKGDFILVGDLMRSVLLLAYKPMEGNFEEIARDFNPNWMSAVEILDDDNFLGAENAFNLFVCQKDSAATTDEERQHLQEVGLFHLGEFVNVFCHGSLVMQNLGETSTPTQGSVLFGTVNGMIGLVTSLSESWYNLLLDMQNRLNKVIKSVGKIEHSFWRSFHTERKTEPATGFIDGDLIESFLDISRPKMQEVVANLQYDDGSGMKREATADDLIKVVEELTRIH
E3 ligase CEREBLON (in complex with its binding partner DDB1), the neo-substrate IKAROS1, sequence (Q96SW2 whole entry): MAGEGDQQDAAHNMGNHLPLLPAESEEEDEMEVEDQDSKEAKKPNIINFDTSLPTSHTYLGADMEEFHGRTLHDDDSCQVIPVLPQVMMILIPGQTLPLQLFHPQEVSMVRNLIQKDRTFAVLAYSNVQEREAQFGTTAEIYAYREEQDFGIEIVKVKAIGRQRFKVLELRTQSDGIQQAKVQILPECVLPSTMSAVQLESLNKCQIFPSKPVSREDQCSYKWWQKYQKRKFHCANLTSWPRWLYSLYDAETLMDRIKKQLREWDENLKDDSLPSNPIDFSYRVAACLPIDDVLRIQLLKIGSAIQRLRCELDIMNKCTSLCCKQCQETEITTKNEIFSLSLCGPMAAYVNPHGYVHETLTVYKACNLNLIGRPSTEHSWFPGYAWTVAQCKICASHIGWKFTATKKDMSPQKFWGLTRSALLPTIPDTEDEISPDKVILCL
E3 ligase CEREBLON (in complex with its binding partner DDB1), the neo-target GSPT1, sequence (Q96SW2 whole entry): as above
E3 ligase CEREBLON (in complex with its binding partner DDB1), the neo-target GSPT1, sequence (Q16531 whole entry partner): as the sequence (Q16531 whole entry, further chain) above
E3 ligase CEREBLON (in complex with its binding partner DDB1), the neo-target GSPT1, sequence (P15170 whole entry): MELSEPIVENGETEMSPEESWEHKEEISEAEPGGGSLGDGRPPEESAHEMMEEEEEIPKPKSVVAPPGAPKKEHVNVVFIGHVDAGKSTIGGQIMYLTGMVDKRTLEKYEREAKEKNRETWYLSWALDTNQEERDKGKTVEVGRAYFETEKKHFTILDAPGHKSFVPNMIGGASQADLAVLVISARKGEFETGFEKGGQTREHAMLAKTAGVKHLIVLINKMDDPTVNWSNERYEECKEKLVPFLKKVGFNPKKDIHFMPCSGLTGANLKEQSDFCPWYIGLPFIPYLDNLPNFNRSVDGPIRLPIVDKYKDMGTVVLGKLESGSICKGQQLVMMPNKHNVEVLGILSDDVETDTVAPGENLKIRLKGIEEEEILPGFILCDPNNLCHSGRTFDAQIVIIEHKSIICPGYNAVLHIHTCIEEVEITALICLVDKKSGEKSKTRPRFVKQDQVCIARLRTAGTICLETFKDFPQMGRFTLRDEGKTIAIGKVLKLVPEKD

Molecule	formation / stabilization of the tertiary complex CEREBLON-DDB1 / GSPT1 in the presence of the molecular glue [1]	blockage of scaffold stretching (complex on the two blunt end substrates) [3, 4]	blockage of scaffold stretching (complex on the two blunt end substrates) [3, 5]	role in the complex formed on the blunt end adapters [3]	further results
Cc1ccc(NC(=O)NCc2ccc3c(c2)CN(C2CCC(=O)NC2=O)C3=O)cc1Cl (centres unmarked) [CC885]	greatly stabilizes the complex				force needed to break the tertiary complex ([1]; FIG. 27, CEREBLON-DDB1 / GSPT1): 20 pN; time to reform the complex when the force is reduced to 0.01 pN ([1]; FIG. 27, after breaking at 20 pN): few second
Nc1cccc2c1C(=O)N(C1CCC(=O)NC1=O)C2=O (centres unmarked) [pomalidomide]					force the tertiary complex can sustain ([2]; FIG. 29): up to 2 pN; formation of the tertiary complex CEREBLON-DDB1 / IKAROS1 upon addition of the molecular glue ([2]; FIG. 29): strong tertiary complex is formed; interaction between CRBN E3 ligase and IKZF1 in presence of the compound ([2]; compound at 1 nM): the interaction was observed
O=C1CCC(N2C(=O)c3ccccc3C2=O)C(=O)N1 (centres unmarked) [thalidomide]	possible to observe formation of the tertiary complex				strength of the tertiary complex interaction (in words) ([1]; FIG. 28, compared with CC885): the interaction is weaker and can be broken even at low force
KU70/80: KU70/80 complex, which binds at the double stranded breaks (NHEJ)		one or more transient blockages were observed	one or more transient blockages were observed	form at the blunt end of both adapters	
B1		one or more transient blockages were observed	one or more transient blockages were observed	bridges these complexes	
